In PubChem BioAssay (NCI):
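Test compounds were applied to cells in 96-well plates for 48 hours at 5 doses. At the GI50, growth is halved. Definition used: TGI = concentration required for complete inhibition of growth.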

Columns and labels:
Experiment in all cases: NCI-60 cell line screen, 48 h
[1] = tested on: SF-268 CNS
[2] = tested on: HOP-62 NSCLC
[3] = tested on: OVCAR-5 ovarian
[4] = tested on: K-562 leukemia
[5] = tested on: SK-MEL-2 melanoma
[6] = tested on: MOLT-4 leukemia
[7] = tested on: NCI-H460 lung
[8] = tested on: SN12C renal
[9] = tested on: SNB-19 CNS
[10] = tested on: SW-620 colon
[11] = tested on: SK-OV-3 ovarian
[12] = tested on: T-47D breast
[13] = tested on: HS 578T breast
[14] = tested on: SK-MEL-5 melanoma
[15] = tested on: TK-10 renal
[16] = tested on: CAKI-1 renal
[17] = tested on: COLO 205 colon
[18] = tested on: LOX IMVI melanoma
[19] = tested on: OVCAR-4 ovarian
[20] = tested on: NCI-H23 lung
[21] = tested on: RPMI-8226 leukemia
[22] = tested on: HL-60(TB) leukemia
[23] = tested on: SNB-75 CNS
[24] = tested on: NCI/ADR-RES ovarian
[25] = tested on: A498 renal
[26] = tested on: PC-3 prostate
[27] = tested on: MCF7 breast
[28] = tested on: CCRF-CEM leukemia
[29] = tested on: SK-MEL-28 melanoma
[30] = tested on: SF-295 CNS
[31] = tested on: SF-539 CNS
[32] = tested on: HT29 colon
[33] = tested on: NCI-H226 lung
[34] = tested on: OVCAR-8 ovarian
[35] = tested on: A549 NSCLC
[36] = tested on: KM12 colon
[37] = tested on: HCC-2998 colon
[38] = tested on: UACC-257 melanoma
[39] = tested on: U251 CNS
[40] = tested on: HCT-116 colon
[41] = tested on: UO-31 renal
[42] = tested on: EKVX NSCLC
[43] = tested on: M14 melanoma
[44] = tested on: HCT-15 colon
[45] = tested on: DU-145 prostate
[46] = tested on: BT-549 breast
[47] = tested on: IGROV1 ovarian
[48] = tested on: HOP-92 NSCLC
[49] = tested on: OVCAR-3 ovarian
[50] = tested on: MDA-MB-435

For COc1cc(C(=O)O[C@H](C(=O)NCCNC(=O)[C@@H](OC(=O)c2cc(OC)cc3c(C)cccc23)[C@]2(C)CO2)[C@]2(C)CO2)c2cccc(C)c2c1, the GI50 [1] was < 10 nM, the TGI [1] was 191 nM and the GI50 [2] was 160 nM. For the same compound, the TGI [2] was 919 nM, the GI50 [3] was 381 nM and the TGI [3] was 2080 nM. For the same compound, the GI50 [4] was < 19.3 nM, the TGI [4] was 15300 nM and the GI50 [5] was < 46.1 nM. The GI50 [6] was < 10 nM, the TGI [6] was > 100000 nM and the GI50 [7] was < 21.4 nM. It also gave a TGI [7] of 359 nM, a GI50 [8] of 21.1 nM and a TGI [8] of 263 nM. The GI50 [9] was 220 nM, the GI50 [10] was < 10 nM and the TGI [10] was > 100000 nM. It also gave a GI50 [11] of 827 nM, a TGI [11] of 9740 nM and a GI50 [12] of 417 nM. For the same compound, the TGI [12] was 3480 nM, the GI50 [13] was 319 nM and the TGI [13] was > 100000 nM. The GI50 [14] was 33.1 nM, the TGI [14] was 280 nM and the GI50 [15] was 475 nM. The TGI [15] was 1900 nM, the GI50 [16] was 56.3 nM and the TGI [16] was 252 nM. The GI50 [17] was 149 nM, the GI50 [18] was < 10 nM and the GI50 [19] was 125 nM. For the same compound, the TGI [19] was > 100000 nM, the GI50 [20] was < 10 nM and the TGI [20] was 98.7 nM. For the same compound, the GI50 [21] was 282 nM, the TGI [21] was 10600 nM and the GI50 [22] was < 10 nM. For the same compound, the GI50 [23] was 304 nM, the TGI [23] was 1400 nM and the GI50 [24] was 250 nM. It also gave a TGI [24] of 1520 nM, a GI50 [25] of 2210 nM and a TGI [25] of 4350 nM. The GI50 [26] was 109 nM, the GI50 [27] was < 10 nM and the TGI [27] was 23.8 nM. The GI50 [28] was < 10 nM, the GI50 [29] was 52.4 nM and the GI50 [30] was 173 nM. For the same compound, the TGI [30] was 793 nM, the GI50 [31] was < 34.8 nM and the TGI [31] was 371 nM. For the same compound, the GI50 [32] was < 19.8 nM, the TGI [32] was 29100 nM and the GI50 [33] was 660 nM. The TGI [33] was 2110 nM, the GI50 [34] was < 10 nM and the TGI [34] was 68.3 nM. The GI50 [35] was < 42.8 nM, the TGI [35] was 1250 nM and the GI50 [36] was 43.8 nM. The TGI [36] was 278 nM, the GI50 [37] was 95.3 nM and the TGI [37] was 2490 nM. It also gave a TGI [38] of 343 nM, a GI50 [39] of 22.5 nM and a TGI [39] of 306 nM. For the same compound, the GI50 [40] was < 28.5 nM, the TGI [40] was 298 nM and the GI50 [41] was 137 nM. The GI50 [42] was 210 nM, the TGI [42] was 1550 nM and the GI50 [43] was 178 nM. The TGI [43] was 696 nM, the GI50 [44] was 179 nM and the TGI [44] was 1330 nM. It also gave a GI50 [45] of 257 nM, a TGI [45] of 1460 nM and a GI50 [46] of 335 nM. The TGI [46] was 3390 nM, the GI50 [47] was < 47.5 nM and the TGI [47] was 5280 nM. For the same compound, the GI50 [48] was 101 nM, the TGI [48] was 404 nM and the GI50 [49] was 721 nM. The TGI [49] was 7630 nM and the TGI [50] was 696 nM.
